Data taken from patent publication US9345781B2, “Targeted dendrimer-drug conjugates” (priority 2009, dated 2016).

Legend:
[1] = tested on: tumors of nude tumor bearing mice; assay: Tumor growth in nude tumor bearing mice after intravenous dosing; assay type: in vivo; settings: one dose/week for 3 weeks
Protocol: (§1) Nude tumor bearing mice were administered by intravenous injection a single dose of 6, 8, 10, or 12 mg/kg of free DOX (one dose/week for 3 weeks). The mice were sacrificed two weeks after the last administration and the tumors were harvested for analysis. Tumor size was measured and compared to the size of tumors harvested from mice administered a saline control.
The above experiment was repeated with an 8 mg/kg dose of free DOX and two additional test groups of mice: one group of mice were administered a dendrimer conjugate comprising a G5 dendrimer conjugated to DOX (G5-OXY-DOX) comprising an azo linkage comprising the structure of
(§2) Also, in this experiment, instead of being sacrificed two weeks after the last administration, the tumor volumes of the mice were measured one week after the last administration and then measured again four weeks later.

[2] = tested on: HepG2 cells; assay: Clonogenic survival of HepG2 cells; assay type: cell-based, human; settings: 72 hour incubation, equivalent DOX concentration
Protocol: (§3) We compared the anticancer activity of G5-L(x)-DOX conjugates to free DOX as a function of concentration by measuring their effect on clonogenic survival of HepG2 and Hep3B hepatic cancer cells. Briefly, HepG2 and Hep3B cells were seeded at a density of 2.5×10^5 cells/T-25 flask and allowed to adhere overnight before incubating with different concentrations (1 nM-100 μM equivalent concentration of DOX) of free DOX or G5-L(x)-DOX conjugates dissolved in OPTI-MEM solution. […] After 72 hours HepG2 and Hep3B cells were washed with cold PBS, trypsinized using a 0.25% trypsin-EDTA solution and centrifuged at 1,000 rpm for 5 minutes. Cell pellets were suspended in fresh culture medium, counted, and plated in 6-well plates at a seeding density of 500-10,000 cells/well and allowed to grow undisturbed for 14 days under normal culture conditions. The formed colonies were gently washed with cold PBS, treated with 1 mL methanol/glacial acetic acid (75/25) and 0.04% w/v trypan blue for 5 minutes and counted. Plating efficiency (PE) for each cell line was calculated by dividing the number of colonies by the cell seeding density for cells incubated with fresh culture medium (negative control). […] All samples were prepared in triplicate for each seeding density and treatment condition, and results expressed as the average % SF±SEM. […]

[3] = tested on: rat cardiomyocytes; assay: LDH leakage cell viability assay in rat cardiomyocytes; assay type: cell-based; settings: 100 μM eq. DOX, 8 hour incubation, versus blank medium
Protocol: Toxicity of G5-L4-DOX conjugates and free DOX in rat cardiomyocytes was evaluated using the lactate dehydrogenase (LDH) leakage cell viability assay. Briefly, each well was counted for total number of cardiomyocytes before an 8 hour treatment with free DOX or G5-L4-DOX (100 μM eq. DOX) conjugates dissolved in 0.5 mL HBSS. The amount of LDH released to the medium was assayed by mixing […] of the treatment solution in a 96-well plate with the enzyme substrate (1:1) included in the assay kit following the manufacturer's guidelines. […] Amount of LDH leakage for treatment solution and controls were normalized to the number of seeded cells, and all values compared to the positive control (set as 100% LDH leakage reference) to obtain the percentage of LDH leakage as a function of treatment.

[4] = Toxicity and body weight of treated mice; assay type: in vivo; settings: one dose/week for 3 weeks
Protocol: as §1, §2

[5] = tested on: Hep3B cells; assay: Clonogenic survival of Hep3B cells; assay type: cell-based, human
Protocol: as §3

Q: With `COc1cccc2c1C(=O)c1c(O)c3c(c(O)c1C2=O)C[C@@](O)(C(=O)CO)C[C@@H]3O[C@H]1C[C@H](N)[C@H](O)[C@H](C)O1.Cl` (relative stereo) [Free DOX, 5,12-Naphthacenedione, 10-[(3-amino-2,3,6-trideoxy-α-L-lyxo-hexopyranosyl)oxy]-7,8,9,10-tetrahydro-6,8,11-trihydroxy-8-(hydroxylacetyl)-1-methoxy-, hydrochloride (8S-cis)] as the compound, how does the “reduction in tumor size versus saline control” value ([1]; 6 mg/kg i.v.) read?
A: Its value is “did not cause any substantial reduction in tumor size”.

Q: And the “tumor growth versus control mice” value ([1]; 8 and 10 mg/kg i.v.)?
A: Its value is “inhibited tumor growth”.

Q: What about the IC50 [2] of the same compound?
A: Its IC50 is 10 nM.

Q: What about the “LDH leakage / cardiac toxicity” value [3] of the same compound?
A: The value was “nearly double the % of LDH leakage”.

Q: What about the “LDH leakage / cardiac toxicity” value ([3]; listed as free DOX) of the same compound?
A: The value was “toxic”.

Q: And the toxicity to mice ([4]; 10 mg/kg i.v.)?
A: Its toxicity to mice is “slight increase in toxicity”.

Q: What about the toxicity to mice ([4]; 12 mg/kg i.v.) of the same compound?
A: Its toxicity to mice is “too toxic to mice”.

Q: And the “fold reduction in IC50 in Hep3B compared to HepG2 cells” value ([5]; 72 hours)?
A: The value was 5 fold.

Q: What about the IC50 ([5]; clonogenic survival, 72 hour incubation, equivalent DOX concentration) of the same compound?
A: The IC50 was 2 nM.
